# Columns and labels:
# [1] = Shake flask LogD (SFLogD) assay; assay type: physicochemical; conditions: for logD: pH = 7.4, octanol/water shake flask, average of 2 runs unless otherwise stated
# Method: (§1) Permeability assay (RRCK): Ralph Russ canine kidney cells were used for permeability measurements using a cell monolayer in 96-transwell format. The detailed assay conditions have been reported previously.9 Test compounds were added to the donor wells and a buffer was added to the receiver wells to start the apical to basolateral transport assay.
# (§2) Time 0 and 1.5 h incubation samples were taken for LC-MS/MS analysis. Apparent permeability (Papp) was calculated using the equation below (1), where Area is the surface area of the cell monolayer (0.0625 cm2), CD(0) is the […]
# Kinetic solubility = assay type: physicochemical; conditions: for solubility at 24 h: aqueous pH buffer, aqueous buffer, kinetic from dmso stock, 37 °C, 600 µM start; for Kinetic solubility, in words: across acidic, neutral, and basic conditions, compared with benzamide counterpart
# Method: Aqueous buffer preparation: pH 3: 50 µL of 1N hydrochloric acid was added to 500 mL of deionized water. The solution was titrated with 1N hydrochloric acid to pH 3, and back titrated with 1N sodium hydroxide. pH 7.4: 100 mM sodium phosphate buffer is made by adding 56.4 g of dibasic sodium phosphate and 10.3 g of monobasic sodium phosphate to 4 L of deionized water. 250 µL of 100 mM sodium phosphate buffer was diluted with 250 µL of deionized water. The solution was titrated with 1N hydrochloric acid to pH 7.4, and back titrated with 1N sodium hydroxide. pH 10: Fisher Scientific pH 10 buffer (SB116-500) containing potassium hydroxide, potassium carbonate, and potassium […]
# pH 12.8: 30 mL of 1N NaOH was added to 200 mL of deionized water. The solution was titrated with 1N sodium hydroxide to pH 12.8 and back titrated with 1N hydrochloric acid.
# Kinetic solubility: Samples were diluted to 600 µM in the appropriate pH buffer (pH: 3, 7.4, 10) and to 600 µM (assumed 100% solubility) in a DMSO standard. Samples were mixed thoroughly and incubated at 37 °C for 24 h.
# Following incubation, pH samples were transferred to a […] PVDF (low binding) and filtered to remove any precipitate. The filtrate was collected and analyzed via MS/MS. The ratio of MS response (DMSO:pH) is taken and multiplied by the initial 600 µM concentration to determine the concentration (solubility) of the samples in pH buffers. […]
# as §1, §2
# [2] = Permeability assay (RRCK); assay type: in vitro ADME, canine; conditions: dog, MDCK, apical to basolateral, average of 2 runs, footnote b = only one replicate
# human hepatocytes = test: Human Hepatocyte (HHEP) stability assay, clearance; assay type: in vitro ADME; conditions: for HHEPG clearance: human hepatocytes, 0.5 million cells/mL, 1 µM test compound
# Method: Human Hepatocyte (HHEP) assay: The high throughput HHEP stability assay was performed in a 384-well format (Greiner Bio-One, Monroe, NC). The cryopreserved HHEP were thawed, and re-suspended in Williams E medium (WEM, custom formula number 91-5233EC; Invitrogen, Grand Island, NY) supplemented with HEPES and Na2CO3. The cells were counted using the Trypan Blue exclusion method. A multidrop liquid dispenser (Multidrop DW, Thermo Scientific, Waltham, MA) was used to add the HHEP suspensions to the 384-well plates. The cell plates were covered and transferred to a Cytomat 2 incubator (ThermoFisher) and Biomek i7 (Beckman Coulter, Indianapolis, IN), equipped with three 3position MéCour heat exchangers. Test compounds were diluted on the Biomek i7 with buffer (15 µL) and added to the HHEP (30 µL). The final incubation contained 0.5 million cells/mL and 1 µM test compound in 45 µL total volume containing 0.01% DMSO. The incubation was carried out at 37 °C in the Cytomat 2 incubator (relative humidity ≥ 90%, 5% CO2/95% air). At various time points (2, 4, 11, 45, 75, 120, and 240 min), the plate was pulled out from the incubator by the Biomek i7 robot and put on the MéCour heated exchanger. Samples (3 µL) were transferred to a 384-well plate containing 30 µL acetonitrile with an internal standard (IS) to quench the reaction. Water (60 µL) was added to the quenched plate to dilute the organic solvent content for LC-MS/MS analysis. The plates were centrifuged at 3000 rpm for 10 min at 4 °C, sealed and subsequently analyzed using LC-MS/MS without further transfer of the supernatant.
# Propranolol (CYP2D6), midazolam (CYP3A) and triazolam (CYP3A, low clearance), naloxone (UGT2B7), carbazeran (AO), and verapamil (CYP3A, CYP2C8) were used as positive controls. For CYP inhibition study, 1 mM ABT (a pan-cYP inhibitor) was pre-incubated with HHEP for 30 minutes at 37 °C before adding test compounds. Values are n >3 unless […]
# as §1, §2
# [3] = Experimental pKaH (amine basicity); assay type: physicochemical; conditions: Table S2
# Source text: The influence of basicity is an ongoing rationale for inclusion of the oxetanes in drug candidates, providing the potential to attenuate off-target effects including hERG channel inhibition. […] As comparison against the benzamide analogue is not possible, we instead looked at the head-to-head comparison between amino-oxetane 4a and benzylamine 18 (Figure ).
SMILES,logD [1],solubility at 24 h (Kinetic solubility; pH 3) [µM],solubility at 24 h (Kinetic solubility; pH 7.4) [µM],solubility at 24 h (Kinetic solubility; pH 10) [µM],Papp at 1.5 h [2] [×10⁻⁶ cm/s],"Kinetic solubility, in words (Kinetic solubility)",HHEPG clearance (human hepatocytes) [μL min^−1 million^−1],"Change in SFlogD of the carbonyl-to-oxetane replacement ([1]; pH 7.4, amino-oxetane versus matched benzamide)",pKa [3],"HHEPG clearance, in words (human hepatocytes; compared with benzamide counterpart)"
"COc1ccc(C(=O)NCC23C[C@H]4C[C@@H](C2)C[C@@H](C3)C4)cc1 [1b, N-(((3R,5R,7R)-Adamantan-1-yl)Methyl)-4-Methoxybenzamide]",3.83,< 0.1,< 0.1,< 0.8,32.7,–,–,–,–,–
"COc1ccc(C2(NCc3ccccc3)COC2)cc1 [2a, N-Benzyl-3-(4-Methoxyphenyl)Oxetan-3-Amine]",2.49,521,359,285,36.5,higher solubility,62,–,–,–
"COc1ccc(C(=O)NCc2ccccc2)cc1 [2b, N-Benzyl-4-Methoxybenzamide]",2.74,114,91,76,38.1,–,30,–,–,–
"COc1ccc(C2(N[C@@H](C)C(=O)N(C)C)COC2)cc1 [3a, (S)-2-((3-(4-Methoxyphenyl)Oxetan-3-yl)Amino)-N,N-Dimethylpropanamide]",0.418,464,472,458,27.3,solubility comparable to their analogous benzamides,< 3,−0.59,–,–
"COc1ccc(C(=O)NC(C)C(=O)N(C)C)cc1 (stereo not drawn) [3b, N-(1-(Dimethylamino)-1-Oxopropan-2-yl)-4-Methoxybenzamide]",1,461,574,465,32.2,–,< 2,–,–,–
"COc1ccc(C(=O)N2CCOCC2)cc1 [4b, (4-Methoxyphenyl)(Morpholino)Methanone]",0.823,461,574,465,48.3,–,< 3,–,–,–
"COc1ccc(C2(N(C3CC3)C3CCN(C(C)=O)CC3)COC2)cc1 [5a, 1-(4-(Cyclopropyl(3-(4-Methoxyphenyl)Oxetan-3-yl)Amino)Piperidin-1-yl)Ethan-1-One]",1.68,299,223,195,38.8,–,38,–,–,–
"COc1ccc(C(=O)N(C2CC2)C2CCN(C(C)=O)CC2)cc1 [5b, N-(1-Acetylpiperidin-4-yl)-N-Cyclopropyl-4-Methoxybenzamide]",1.25,465,467,299,31.7,–,< 4,–,–,–
"COc1ccc(C2(Nc3ccc(NC(C)=O)cc3)COC2)cc1 [6a, N-(4-((3-(4-Methoxyphenyl)Oxetan-3-yl)Amino)Phenyl)Acetamide]",–,509,505,500,–,higher solubility,112,–,–,–
"COc1ccc(C(=O)Nc2ccc(NC(C)=O)cc2)cc1 [6b, N-(4-Acetamidophenyl)-4-Methoxybenzamide]",1.92,13,10,8,14,–,57,–,–,–
"COc1ccc(C2(Nc3ccc4c(c3)OC(F)(F)O4)COC2)cc1 [7a, 2,2-Difluoro-N-(3-(4-Methoxyphenyl)Oxetan-3-yl)Benzo[d][1,3]dioxol-5-Amine]",–,7,8,12,–,–,–,–,–,significantly higher clearance than its benzamide counterpart
"COc1ccc(C(=O)Nc2ccc3c(c2)OC(F)(F)O3)cc1 [7b, N-(2,2-Difluorobenzo[d][1,3]dioxol-5-yl)-4-Methoxybenzamide]",3.81,< 0.1,< 0.1,< 0.1,28.3,–,–,–,–,–
"COc1ccc(C2(Nc3ccc(OC)nc3)COC2)cc1 [8a, 6-Methoxy-N-(3-(4-Methoxyphenyl)Oxetan-3-yl)Pyridin-3-Amine]",2.54,412,358,326,37.2,higher solubility,42,–,–,–

# The next lines start with results.
logD [1],solubility at 24 h (Kinetic solubility; pH 3) [µM],solubility at 24 h (Kinetic solubility; pH 7.4) [µM],solubility at 24 h (Kinetic solubility; pH 10) [µM],Papp at 1.5 h [2] [×10⁻⁶ cm/s],"Kinetic solubility, in words (Kinetic solubility)",HHEPG clearance (human hepatocytes) [μL min^−1 million^−1],"Change in SFlogD of the carbonyl-to-oxetane replacement ([1]; pH 7.4, amino-oxetane versus matched benzamide)",pKa [3],SMILES,"HHEPG clearance, in words (human hepatocytes; compared with benzamide counterpart)"
2.49,50,31,24,20.9,–,13,–,–,"COc1ccc(C(=O)Nc2ccc(OC)nc2)cc1 [8b, 4-Methoxy-N-(6-Methoxypyridin-3-yl)Benzamide]",–
1.32,–,–,–,43.6,–,13,–,–,"c1ccc(Oc2ccc(C3(N4CCOCC4)COC3)cc2)nc1 [9a, 4-(3-(4-(Pyridin-2-yloxy)Phenyl)Oxetan-3-yl)Morpholine]",–
1.08,–,–,–,47.2,–,< 2,–,–,"O=C(c1ccc(Oc2ccccn2)cc1)N1CCOCC1 [9b, Morpholino(4-(Pyridin-2-yloxy)Phenyl)Methanone]",–
1.11,–,–,–,37.8,–,< 2,–,–,"O=C(c1ccc(S(=O)(=O)c2ccccc2)cc1)N1CCOCC1 [10b, Morpholino(4-(Phenylsulfonyl)Phenyl)Methanone]",–
1.66,–,–,–,< 36.1,–,< 2,–,–,"FC(F)(F)c1ncc(-c2ccc(C3(N4CCOCC4)COC3)cc2)cn1 [11a, 4-(3-(4-(2-(Trifluoromethyl)Pyrimidin-5-yl)Phenyl)Oxetan-3-yl)Morpholine]",–
1.31,–,–,–,43.2,–,< 2,–,–,"O=C(c1ccc(-c2cnc(C(F)(F)F)nc2)cc1)N1CCOCC1 [11b, Morpholino(4-(2-(Trifluoromethyl)Pyrimidin-5-yl)Phenyl)Methanone]",–
0.331,–,–,–,39.3,–,11,–,–,"c1cc(C2(N3CCOCC3)COC2)ccc1N1CCOCC1 [12a, 4-(4-(3-Morpholinooxetan-3-yl)Phenyl)Morpholine]",–
0.444,–,–,–,36.4,–,< 2,–,–,"O=C(c1ccc(N2CCOCC2)cc1)N1CCOCC1 [12b, 4-Morpholinonebenzene-4-Yl-Morpholine]",–
–,–,–,–,–,–,–,–,8.81,COc1ccc(CNCc2ccccc2)cc1 [S1],–
